Assay results taken from patent publication US11382898B2, “BAX activators and uses thereof in cancer therapy” (Albert Einstein College of Medicine, priority 2017, dated 2022).
Each block holds one molecule with its values, some of them ahead of it. Positions of bridges follow the written chain, without caps; N, C: chain ends. Non-standard residues stand in square brackets, D forms with d. Residues, ends and D or L forms follow the SMILES beside them. S5 = C=CCCC[C@](C)(N)C(=O)O

What was measured:
BAX [1] = target: T1, BAX (Homo sapiens, UniProt Q07812); experiment: Competitive fluorescence polarization assay, FITC-BIM SAHBA2 from the BAX trigger site; format: binding; conditions: for IC50: FITC-BIM SAHBA2 50 nM, BAX 500 nM, read-out: IC50, competition of FITC-BIM SAHBA2 from BAX
T1 construct: with serial dilutions of full-length BAX, BCL-XLΔC, MCL-1ΔNΔC, BFL-1/A1ΔC; made in house; host or cells: Escherichia coli
Protocol: (§1) Fluorescence polarization assays (FPA) were performed as previously described (Gavathiotis et al., 2012). Firstly, direct binding isotherms were generated by incubating FITC-BIM SAHBA2 (50 nM) with serial dilutions of full-length BAX, BCL-XLΔC, MCL-1ΔNΔC, BFL-1/A1ΔC and fluorescence polarization was measured at 20 minutes on a F200 PRO microplate reader (TECAN). Subsequently, in competition assays, a serial dilution of small molecule or acetylated BIM SAHBA2 (Ac-BIM SAHB) was combined with FITC-BIM SAHBA2 (50 nM), followed by the addition of recombinant protein at ˜EC75 concentration, as determined by the direct binding assay (BAX: 500 nM; BCL-XLΔC, MCL-1ΔNΔC, BFL-1/A1ΔC: 200 nM).
(§2) A competitive fluorescence polarization assay that evaluates the capacity of compounds to compete a fluorescein-labeled stapled peptide of the BIM BH3 helix, FITC-BIM SAHBA2, from the BAX trigger site, was used to determine the binding potency (Gavathiotis et al., 2008; Gavathiotis et al., 2012).

BCL-XL = target: T2, BCL-XL (Homo sapiens, UniProt Q07817); experiment: Competitive fluorescence polarization assay, FITC-BIM SAHBA2 bound to BCL-XL; format: binding; conditions: BTSA1 at 50 μM
T2 construct: BCL-XLΔC, MCL-1ΔNΔC, BFL-1/A1ΔC: 200 nM; made in house; host or cells: Escherichia coli
Protocol: as §1, §2

MCL-1 = experiment: Competitive fluorescence polarization assay, FITC-BIM SAHBA2 bound to MCL-1; format: binding, Human; conditions: BTSA1 at 50 μM
Protocol: as §1, §2

BFL-1/A1 = experiment: Competitive fluorescence polarization assay, FITC-BIM SAHBA2 bound to BFL-1/A1; format: binding, Human; conditions: BTSA1 at 50 μM
Protocol: as §1, §2

[2] = test system: anti-apoptotic BCL-2 family proteins (BCL-2, BCL-XL, MCL-1); experiment: Pull down assay with biotinylated BTSA1, anti-apoptotic BCL-2 family proteins; format: binding, human
Protocol: OCI-AML3, MEFs and HPB-ALL cytosolic and mitochondrial lysates were generated by Dounce Homogenization. Cells were lysed by Dounce homogenizer in lysis buffer (LB) containing 10 mM Tris, pH 7.5, 1 mM EGTA, 200 mM sucrose plus Complete Protease Inhibitors. The cell lysates were centrifuged at 700×g for 10 min to remove unbroken cells and nuclei. The supernatants were centrifuged at 12000× g for 10 min at 4° C. and the resulting pellet was collected as the mitochondrial fraction and supernatant as the cytosolic fraction. The mitochondrial fraction was resuspended in LB+1% CHAPS to solubilize proteins. […] Biotin capture was achieved by incubation with high capacity streptavidin agarose (50 μL 50% slurry/reaction—Pierce) for 1 hour at room temperature. The streptavidin beads were washed (3×) at room temperature with 1×PBS. Cellular BAX bound to the biotinylated-BTSA1 was eluted by boiling for 20 minutes in LDS buffer and then subjected to BAX (2772S, Cell Signaling), BCL-2 (BD Biosciences Cat. 610539), BCL-XL (Cell Signaling Cat. 2764) and MCL-1 (Cell Signaling Cat. 4572) western blot analysis.

BAX [3] = target: T1, BAX; experiment: Direct fluorescence polarization binding of fluorescein-labeled BTSA1 to BAX; conditions: fluorescein-labeled compound
OCI-AML3 leukemia cells = experiment: Synergistic cytotoxicity with BCL-2 inhibitors in OCI-AML3 leukemia cells; format: cell-based, human; conditions: for synergy with ABT-199 (venetoclax) / synergy with ABT-263 (navitoclax): non-cytotoxic doses, 24 h; for IC50: Homo sapiens, OCI-AML-3, 24 h, 24 h treatment
Protocol: Viability assays were performed in at least triplicate and the data normalized to vehicle-treated control wells. IC50 values were determined by nonlinear regression analysis using Prism software (Graphpad).

THP-1 and OCI-AML3 cells = experiment: Viability assay of AML cells treated with venetoclax or BTSA1 alone or in combination; format: cell-based, human; conditions: BTSA1 at ~EC10 dose, 24 hrs
From the text: Moreover, the synergistic effect of these two drugs is observed within hours, consistent with their kinetics of mitochondrial apoptosis activation.

T1 sequence (Q07812 whole entry): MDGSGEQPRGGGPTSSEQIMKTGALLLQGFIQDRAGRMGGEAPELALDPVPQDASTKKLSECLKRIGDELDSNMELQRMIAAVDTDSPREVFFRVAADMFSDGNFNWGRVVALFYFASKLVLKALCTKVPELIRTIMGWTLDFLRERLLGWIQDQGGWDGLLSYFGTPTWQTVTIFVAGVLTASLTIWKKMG
T2 sequence (Q07817 1-212 limits assumed): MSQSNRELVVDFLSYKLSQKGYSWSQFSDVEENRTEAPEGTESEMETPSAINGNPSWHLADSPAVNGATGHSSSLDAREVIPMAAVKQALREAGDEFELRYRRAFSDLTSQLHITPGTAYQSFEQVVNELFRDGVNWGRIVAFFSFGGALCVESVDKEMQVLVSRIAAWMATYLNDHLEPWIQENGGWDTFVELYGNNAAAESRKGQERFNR

SMILES: CC[C@H](C)[C@H](NC(=O)[C@H](Cc1c[nH]c2ccccc12)NC(=O)[C@@H](NC(=O)[C@H](CCC(=O)O)NC(C)=O)[C@@H](C)CC)C(=O)N[C@@H](C)C(=O)N[C@@H](CCC(N)=O)C(=O)N[C@@H](CCC(=O)O)C(=O)N[C@@H](CC(C)C)C(=O)N[C@@H](CCCNC(=N)N)C(=O)N[C@@]1(C)CCCC=CCCC[C@@](C)(C(=O)N[C@@H](Cc2ccccc2)C(=O)N[C@@H](CC(N)=O)C(=O)N[C@@H](C)C(=O)N[C@@H](Cc2ccc(O)cc2)C(=O)N[C@@H](Cc2ccc(O)cc2)C(=O)N[C@@H](C)C(N)=O)NC(=O)[C@H](CC(=O)O)NC(=O)CNC(=O)[C@H]([C@@H](C)CC)NC1=O [BIM SAHBA2] (Ac-EIWIAQELR[S5]IGD[S5]FNAYYA-NH2; staple 10-14)
- IC50 (BAX [1]): 0.28 µM
- capacity to compete FITC-BIM SAHBA2 from BCL-XL (BCL-XL): effectively competed
- capacity to compete FITC-BIM SAHBA2 from MCL-1 (MCL-1): effectively competed
- capacity to compete FITC-BIM SAHBA2 from BFL-1/A1 (BFL-1/A1): effectively competed

SMILES: O=C(NCCCOCCOCCOCCCNC(=S)Nc1ccc2c(c1)C(=O)OC21c2ccc(O)cc2Oc2cc(O)ccc21)c1ccc(-c2csc(N3N=C(c4ccccc4)C(=NNc4nccs4)C3=O)n2)cc1 [fluorescein-labeled BTSA1, N-(1-((3′,6′-dihydroxy-3-oxo-3H-spiro[isobenzofuran-1,9′-xanthen]-5-yl)amino)-1-thioxo-6,9,12-trioxa-2-azapentadecan-15-yl)-4-(2-(5-oxo-3-phenyl-4-(2-(thiazol-2-yl)hydrazineylidene)-4,5-dihydro-1H-pyrazol-1-yl)thiazol-4-yl)-benzamide]
- EC50 (BAX [3]): 0.144 µM

SMILES: O=C1/C(=N\Nc2nccs2)C(c2ccccc2)=NN1c1nc(-c2ccc(F)cc2)cs1 [GAV2-008]
- synergy with ABT-199 (venetoclax) (OCI-AML3 leukemia cells): significant synergistic cytotoxicity
- synergy with ABT-263 (navitoclax) (OCI-AML3 leukemia cells): significant synergistic cytotoxicity

SMILES: CC1(C)CCC(CN2CCN(c3ccc(C(=O)NS(=O)(=O)c4ccc(NCC5CCOCC5)c([N+](=O)[O-])c4)c(Oc4cnc5[nH]ccc5c4)c3)CC2)=C(c2ccc(Cl)cc2)C1 [ABT-199, 4-(4-{[2-(4-Chlorophenyl)-4,4-dimethyl-1-cyclohexen-1-yl]methyl}-1-piperazinyl)-N-({3-nitro-4-[(tetrahydro-2H-pyran-4-ylmethyl)amino]phenyl}sulfonyl)-2-(1H-pyrrolo[2,3-b]pyridin-5-yloxy)benzamide]
- EC50 of venetoclax in combination with BTSA1 (THP-1 and OCI-AML3 cells): low nM concentration
- IC50 (OCI-AML3 leukemia cells; BAX activator concentration 0.625 μM): 3.91 µM
- IC50 (OCI-AML3 leukemia cells; BAX activator concentration 1.25 μM): 4.8 µM
- IC50 (OCI-AML3 leukemia cells; BAX activator concentration […]): 3.65 µM

SMILES: Cc1nc(N/N=C2\C(=O)N(c3nc(-c4ccccc4)cs3)N=C2c2ccccc2)sc1C [GAV2-006]
- synergy with ABT-199 (venetoclax) (OCI-AML3 leukemia cells): significant synergistic cytotoxicity
- synergy with ABT-263 (navitoclax) (OCI-AML3 leukemia cells): significant synergistic cytotoxicity

SMILES: COc1ccc(C2=NN(c3nc(-c4ccccc4)cs3)C(=O)/C2=N\Nc2nccs2)cc1 [GAV2-010]
- synergy with ABT-199 (venetoclax) (OCI-AML3 leukemia cells): significant synergistic cytotoxicity

Continued, in another order:

- reduction in binding capacity to BAX relative to BTSA1 (BAX [1]): ten-fold
- IC50 (BAX [1]): 2 µM
SMILES: O=C(CCCC[C@H]1SCC2NC(=O)NC21)NCCCOCCOCCOCCCNC(=O)c1ccc(-c2csc(N3N=C(c4ccccc4)C(=NNc4nccs4)C3=O)n2)cc1 (stereo partly drawn) [biotinylated BTSA1, N-(15-oxo-19-((4R)-2-oxohexahydro-1H-thieno[3,4-d]imidazol-4-yl)-4,7,10-trioxa-14-azanonadecyl)-4-(2-(5-oxo-3-phenyl-4-(2-(thiazol-2-yl)hydrazono)-4,5-dihydro-1Hpyrazol-1-yl)thiazol-4-yl)benzamide]
- pull down of anti-apoptotic BCL-2 family proteins [2]: failed to pull down

- reduction in binding capacity to BAX relative to BTSA1 (BAX [1]): ~10 fold
- IC50 (BAX [1]): 3.7 µM
SMILES: CC1=NN(c2nc(-c3ccccc3)cs2)C(=O)C1=NNc1nccs1 [BTSA2]
